Source: ChEMBL document CHEMBL5131493, “Synthesis and evaluation of RNase L-binding 2-aminothiophenes as anticancer agents” (Bioorg Med Chem, 2022)
Activity calls are given as the source filed them. The calls are words filed in the database; no cut-off is given here.

Key:
[1] = tested on: JAR; assay: Induction of apoptosis in human JAR cells assessed as early apoptotic cells at 5 uM measured after 72 hrs by Annexin V-FITC/PI staining based flow cytometry (reference value: 8.24%); format: functional
[2] = tested on: JAR; assay: Induction of apoptosis in human JAR cells assessed as necrotic cells at 5 uM measured after 72 hrs by Annexin V-FITC/PI staining based flow cytometry (reference value: 0.22%); format: functional
[3] = tested on: JAR; assay: Induction of apoptosis in human JAR cells assessed as early apoptotic cells at 10 uM measured after 72 hrs by Annexin V-FITC/PI staining based flow cytometry (reference value: 8.24%); format: functional
[4] = tested on: JAR; assay: Induction of apoptosis in human JAR cells assessed as necrotic cells at 10 uM measured after 72 hrs by Annexin V-FITC/PI staining based flow cytometry (reference value: 0.22%); format: functional
[5] = tested on: JAR; assay: Induction of apoptosis in human JAR cells assessed as fold increase in cleaved PARP level at 10 uM incubated for 24 hrs by Western blot analysis; format: functional
[6] = tested on: JAR; assay: Induction of apoptosis in human JAR cells assessed as late apoptotic cells at 10 uM measured after 72 hrs by Annexin V-FITC/PI staining based flow cytometry (reference value: 11.67%); format: functional
[7] = tested on: JAR; assay: Inhibition of colony formation in human JAR cells assessed as cell reproductive death at upto 5 uM measured after 3 days by Giemsa staining based microscopic analysis; format: functional; details: time 3.0 day
[8] = tested on: JAR; assay: Induction of apoptosis in human JAR cells assessed as late apoptotic cells at 5 uM measured after 72 hrs by Annexin V-FITC/PI staining based flow cytometry (reference value: 11.67%); format: functional
[9] = tested on: JAR; assay: Antiproliferative activity against human JAR cells assessed as cell growth inhibition at 10 uM incubated for 72 hrs by MTT assay relative to control; format: functional
[10] = tested on: K562; assay: Antiproliferative activity against human K562 cells assessed as cell growth inhibition incubated for 72 hrs by MTT assay; format: functional, cell-based; details: K562, 72 h
[11] = tested on: JAR; assay: Antiproliferative activity against human JAR cells assessed as cell growth inhibition incubated for 72 hrs by MTT assay; format: functional, cell-based
[12] = tested on: A549; assay: Antiproliferative activity against human A549 cells assessed as cell growth inhibition incubated for 72 hrs by MTT assay; format: functional, cell-based; details: A549, 72 h
[13] = species: Homo sapiens; assay: Binding affinity to RNase L (unknown origin) expressed in Escherichia coli BL21 (DE3) assessed as thermal stability by measuring melting temperature at 60 uM incubated for 50 mins by NanoDSF analysis
[14] = tested on: JAR; assay: Induction of apoptosis in human JAR cells assessed as fold increase in PARP cleavage at 5 to10 uM incubated for 24 hrs by Western blot analysis; format: functional; details: dose 10 µM
[15] = tested on: JAR; assay: Inhibition of cell migration in human JAR cells at 5 uM measured after 72 hrs by scratch wound healing assay relative to control; format: functional
[16] = tested on: JAR; assay: Induction of apoptosis in human JAR cells assessed as live cells at 10 uM measured after 72 hrs by Annexin V-FITC/PI staining based flow cytometry (reference value: 79.87%); format: functional
[17] = tested on: JAR; assay: Inhibition of colony formation in human JAR cells measured after 3 days by Giemsa staining based microscopic analysis; format: functional, cell-based; details: time 3.0 day, DDE = dose-dependent effect
[18] = tested on: MCF7; assay: Antiproliferative activity against human MCF7 cells assessed as cell growth inhibition incubated for 72 hrs by MTT assay; format: functional, cell-based; details: MCF7, 72 h
[19] = tested on: JAR; assay: Induction of apoptosis in human JAR cells assessed as live cells at 5 uM measured after 72 hrs by Annexin V-FITC/PI staining based flow cytometry (reference value: 79.87%); format: functional

Structure (SMILES): CCOC(=O)C1=C(Nc2ccccc2)S/C(=C\c2ccc(F)c(C#N)c2)C1=O
- Activity [1]: 23.02%
- Activity [2]: 1.88%
- Activity [3]: 5.06%
- Activity [4]: 6.8%
- fold change (FC) [5]: >2
- Activity [6]: 55.7%
- inhibition [7]: Active
- Activity [8]: 27.47%
- inhibition at 10 µM [9]: 99.9%
- IC50 [10]: 1.6 µM
- IC50 [11]: 1.5 µM
- IC50 [12]: 8 µM
- ΔTm [13]: 0.8 °C
- fold change (FC) [14]: >2
- inhibition at 5 µM [15]: 85%
- Activity [16]: 32.48%
- inhibition [17]: Dde
- IC50 [18]: 5.2 µM
- Activity [19]: 47.62%
